# Several values for one entry are separate records, joined by “and”; a condition that tells them apart may be missing. Equal entries are not always repeated.
# Test system: Angiotensin II (AII) vasopressor response
# Assay: AII challenge: vasopressor response of angiotensin II in conscious SHR
# Format: in vivo, rat (Conscious Male Okamoto-Aoki SHR)
# Conditions: for % Inhibition / Average Change: SHR n = 2; for Response After AII / Change / Control Before AII: single rat, SHR
# Source text: By administering a compound of this invention to a rat, and then challenging with angiotensin II, a blockage of the vasopressor response is realized.
# Conscious Male Okamoto-Aoki SHR, 16-20 weeks old, weighing approximately 330 g are purchased from Charles River Labs (Wilmington, Mass.). Conscious rats are restrained in a supine position with elastic tape. The area at the base of the tail is locally anesthetized by subcutaneous infiltration with 2% procaine. The ventral caudal artery and vein are isolated, and a cannula made of polyethylene (PE) 10-20 tubing (fused together by heat) is passed into the lower abdominal aorta and vena cava, respectively. The cannula is secured, heparinized (1,000 I.U./ml), sealed and the wound is closed. The animals are placed in plastic restraining cages in an upright position. The cannula is attached to a Statham P23Db pressure transducer, and pulsatile blood pressure is recorded to 10-15 minutes with a Gould Brush recorder. (Chan et al., (Drug Development Res., 18:75-94, 1989).
# Angiotensin II (human sequence, Sigma Chem. Co., St. Louis, Mo.) of 0.05 and 0.1 ug/kg i.v. is injected into all rats (predosing response). Then a test compound, vehicle or a known angiotensin II antagonist is administered i.v., i.p. or orally to each set of rats. The two doses of angiotensin II are given to each rat again at 30, 60, 90, 120, 180, 240 and 300 minutes post dosing the compound or vehicle. The vasopressor response of angiotensin II is measured for the increase in systolic blood pressure in mmhg. The percentage of antagonism or blockade of the vasopressor response of angiotensin II by a compound is calculated using the vasopressor response (increase in systolic blood pressure) of angiotensin II of each rat predosing the compound as 100%. A compound is considered active if at 30 mg/kg i.v. it antagonized at least 50% of the response.
# [1] = 1 mg/kg I.V., AII 0.05 mcg/kg IV, 30 min post dose
# [2] = 1 mg/kg I.V., AII 0.05 mcg/kg IV, 60 min post dose
# [3] = 1 mg/kg I.V., AII 0.05 mcg/kg IV, 90 min post dose
# [4] = 1 mg/kg I.V., AII 0.05 mcg/kg IV, 120 min post dose
# [5] = 1 mg/kg I.V., AII 0.05 mcg/kg IV, 180 min post dose
# [6] = 1 mg/kg I.V., AII 0.05 mcg/kg IV, 240 min post dose
# [7] = 1 mg/kg I.V., AII 0.1 mcg/kg IV, 30 min post dose
# [8] = 1 mg/kg I.V., AII 0.1 mcg/kg IV, 60 min post dose
# [9] = 1 mg/kg I.V., AII 0.1 mcg/kg IV, 90 min post dose
# [10] = 1 mg/kg I.V., AII 0.1 mcg/kg IV, 120 min post dose
# [11] = 1 mg/kg I.V., AII 0.1 mcg/kg IV, 180 min post dose
# [12] = 1 mg/kg I.V., AII 0.1 mcg/kg IV, 240 min post dose
# [13] = 2 mg/kg P.O., AII 0.05 mcg/kg IV, 30 min post dose
# [14] = 2 mg/kg P.O., AII 0.05 mcg/kg IV, 60 min post dose
# [15] = 2 mg/kg P.O., AII 0.05 mcg/kg IV, 90 min post dose
# [16] = 2 mg/kg P.O., AII 0.05 mcg/kg IV, 120 min post dose
# [17] = 2 mg/kg P.O., AII 0.05 mcg/kg IV, 180 min post dose
# [18] = 2 mg/kg P.O., AII 0.1 mcg/kg IV, 30 min post dose
# [19] = 2 mg/kg P.O., AII 0.1 mcg/kg IV, 60 min post dose
# [20] = 2 mg/kg P.O., AII 0.1 mcg/kg IV, 90 min post dose
# [21] = 2 mg/kg P.O., AII 0.1 mcg/kg IV, 120 min post dose
# [22] = 2 mg/kg P.O., AII 0.1 mcg/kg IV, 180 min post dose
# [23] = 1 mg/kg I.V., AII 0.05 mcg/kg IV, 30 min post dose, 1 mg/kg
# [24] = 1 mg/kg I.V., AII 0.05 mcg/kg IV, 60 min post dose, 1 mg/kg
# [25] = 1 mg/kg I.V., AII 0.05 mcg/kg IV, 90 min post dose, 1 mg/kg
# [26] = 1 mg/kg I.V., AII 0.05 mcg/kg IV, 180 min post dose, 1 mg/kg
# [27] = 1 mg/kg I.V., AII 0.05 mcg/kg IV, 240 min post dose, 1 mg/kg
# [28] = 1 mg/kg I.V., AII 0.1 mcg/kg IV, 30 min post dose, 1 mg/kg
# [29] = 1 mg/kg I.V., AII 0.1 mcg/kg IV, 60 min post dose, 1 mg/kg
# [30] = 1 mg/kg I.V., AII 0.1 mcg/kg IV, 90 min post dose, 1 mg/kg
# [31] = 1 mg/kg I.V., AII 0.1 mcg/kg IV, 120 min post dose, 1 mg/kg
# [32] = 1 mg/kg I.V., AII 0.1 mcg/kg IV, 180 min post dose, 1 mg/kg
# [33] = 1 mg/kg I.V., AII 0.1 mcg/kg IV, 240 min post dose, 1 mg/kg
# [34] = 2 mg/kg P.O., AII 0.05 mcg/kg IV, 30 min post dose, 2 mg/kg
# [35] = 2 mg/kg P.O., AII 0.05 mcg/kg IV, 90 min post dose, 2 mg/kg
# [36] = 2 mg/kg P.O., AII 0.05 mcg/kg IV, 120 min post dose, 2 mg/kg
# [37] = 2 mg/kg P.O., AII 0.05 mcg/kg IV, 180 min post dose, 2 mg/kg
# [38] = 2 mg/kg P.O., AII 0.1 mcg/kg IV, 60 min post dose, 2 mg/kg
# [39] = 2 mg/kg P.O., AII 0.1 mcg/kg IV, 120 min post dose, 2 mg/kg
# [40] = 2 mg/kg P.O., AII 0.1 mcg/kg IV, 180 min post dose, 2 mg/kg
smiles,measurement,setting,value
"CCCCc1nc2ccc(C(C)(O)CC3CCCN3)cc2c(=O)n1Cc1ccc(-c2ccccc2-c2nnn[nH]2)cc1 (stereo not drawn) [Example 79, CIS-2-Butyl-6-[1-hydroxy-1-methyl-2-(2-pyrrolidinyl)ethyl]-3-[[21-(1H-tetrazol-5-yl)[1,1'-biphenyl]-4-yl]methyl]-4(3H)-quinazolinone]",% Inhibition,[1],93%
same,Average Change,[1],2.5 mmhg
same,% Inhibition,[2],67%
same,Average Change,[2],12.5 mmhg
same,% Inhibition,[3],53%
same,Average Change,[3],17.5 mmhg
same,% Inhibition,[4],47%
same,Average Change,[4],20 mmhg
same,% Inhibition,[5],53%
same,Average Change,[5],17.5 mmhg
same,% Inhibition,[6],20%
same,Average Change,[6],30 mmhg
same,% Inhibition,[7],76%
same,Average Change,[7],11 mmhg
same,% Inhibition,[8],62%
same,Average Change,[8],17 mmhg
same,% Inhibition,[9],56%
same,Average Change,[9],20 mmhg
same,% Inhibition,[10],39%
same,Average Change,[10],27.5 mmhg
same,% Inhibition,[11],50%
same,Average Change,[11],22.5 mmhg
same,% Inhibition,[12],24%
same,Average Change,[12],34 mmhg
same,% Inhibition,[13],0%
same,Average Change,[13],27.5 mmhg
same,% Inhibition,[14],-9%
same,Average Change,[14],30 mmhg
same,% Inhibition,[15],13%
same,Average Change,[15],24 mmhg
same,% Inhibition,[16],15%
same,Average Change,[16],23.5 mmhg
same,% Inhibition,[17],5%
same,Average Change,[17],26 mmhg
same,% Inhibition,[18],-9%
same,Average Change,[18],30 mmhg
same,% Inhibition,[19],-36%
same,Average Change,[19],37.5 mmhg
same,% Inhibition,[20],-55%
same,Average Change,[20],42.5 mmhg
same,% Inhibition,[21],-11%
same,Average Change,[21],30.5 mmhg
same,% Inhibition,[22],-40%
same,Average Change,[22],38.5 mmhg
same,Response After AII,[1],200 mmhg
same,Change,[23],0 mmhg and 5 mmhg
same,Response After AII,[23],205 mmhg
same,Response After AII,[2],220 mmhg
same,Change,[24],15 mmhg and 10 mmhg
same,Response After AII,[24],205 mmhg
same,Response After AII,[3],220 mmhg
same,Change,[25],15 mmhg and 20 mmhg
same,Response After AII,[25],215 mmhg
same,Change,[4],20 mmhg
same,Response After AII,[4],215 mmhg
same,Response After AII,[5],220 mmhg
same,Change,[26],15 mmhg and 20 mmhg
same,Response After AII,[26],215 mmhg
same,Change,[27],25 mmhg and 35 mmhg
same,Response After AII,[27],220 mmhg and 235 mmhg
same,Response After AII,[7],202 mmhg
same,Change,[28],15 mmhg and 7 mmhg
same,Response After AII,[28],205 mmhg
same,Change,[29],19 mmhg and 15 mmhg
same,Response After AII,[29],214 mmhg and 210 mmhg
same,Response After AII,[9],220 mmhg
same,Change,[30],25 mmhg and 15 mmhg
same,Response After AII,[30],215 mmhg
same,Change,[31],30 mmhg and 25 mmhg
same,Response After AII,[31],230 mmhg and 220 mmhg
same,Response After AII,[11],220 mmhg
same,Change,[32],30 mmhg and 15 mmhg
same,Response After AII,[32],225 mmhg
same,Change,[33],33 mmhg and 35 mmhg
same,Response After AII,[33],238 mmhg and 240 mmhg
same,Control Before AII,"1 mg/kg I.V., before AII 0.05 mcg/kg IV, 30 min post dose",200 mmhg
same,Control Before AII,"1 mg/kg I.V., before AII 0.05 mcg/kg IV, 60 min post dose, 1 mg/kg",205 mmhg and 195 mmhg
same,Control Before AII,"1 mg/kg I.V., before AII 0.05 mcg/kg IV, 90 min post dose",200 mmhg
same,Control Before AII,"1 mg/kg I.V., before AII 0.05 mcg/kg IV, 120 min post dose",195 mmhg
same,Control Before AII,"1 mg/kg I.V., before AII 0.05 mcg/kg IV, 180 min post dose, 1 mg/kg",205 mmhg and 195 mmhg
same,Control Before AII,"1 mg/kg I.V., before AII 0.05 mcg/kg IV, 240 min post dose, 1 mg/kg",195 mmhg and 200 mmhg
same,Control Before AII,"1 mg/kg I.V., before AII 0.1 mcg/kg IV, 30 min post dose, 1 mg/kg",190 mmhg and 195 mmhg
same,Control Before AII,"1 mg/kg I.V., before AII 0.1 mcg/kg IV, 60 min post dose",195 mmhg
same,Control Before AII,"1 mg/kg I.V., before AII 0.1 mcg/kg IV, 90 min post dose, 1 mg/kg",195 mmhg and 200 mmhg
same,Control Before AII,"1 mg/kg I.V., before AII 0.1 mcg/kg IV, 120 min post dose, 1 mg/kg",200 mmhg and 195 mmhg
same,Control Before AII,"1 mg/kg I.V., before AII 0.1 mcg/kg IV, 180 min post dose, 1 mg/kg",195 mmhg and 205 mmhg
same,Control Before AII,"1 mg/kg I.V., before AII 0.1 mcg/kg IV, 240 min post dose",205 mmhg
same,Change,[34],30 mmhg and 25 mmhg
same,Response After AII,[34],260 mmhg and 275 mmhg
same,Change,[14],30 mmhg
same,Response After AII,"2 mg/kg P.O., AII 0.05 mcg/kg IV, 60 min post dose, 2 mg/kg",265 mmhg and 270 mmhg
same,Change,[35],20 mmhg and 28 mmhg
same,Response After AII,[35],245 mmhg and 258 mmhg
same,Change,[36],17 mmhg and 30 mmhg
same,Response After AII,[36],242 mmhg and 265 mmhg
same,Change,[37],17 mmhg and 35 mmhg
same,Response After AII,[37],252 mmhg and 275 mmhg
same,Change,[18],30 mmhg
same,Response After AII,"2 mg/kg P.O., AII 0.1 mcg/kg IV, 30 min post dose, 2 mg/kg",265 mmhg and 275 mmhg
same,Change,[38],35 mmhg and 40 mmhg
same,Response After AII,[38],260 mmhg and 280 mmhg
same,Response After AII,[20],270 mmhg
same,Change,"2 mg/kg P.O., AII 0.1 mcg/kg IV, 90 min post dose, 2 mg/kg",45 mmhg and 40 mmhg
same,Change,[39],31 mmhg and 30 mmhg
same,Response After AII,[39],255 mmhg and 270 mmhg
same,Change,[40],32 mmhg and 45 mmhg
same,Response After AII,[40],262 mmhg and 280 mmhg
same,Control Before AII,"2 mg/kg P.O., before AII 0.05 mcg/kg IV, 30 min post dose",250 mmhg
same,Control Before AII,"2 mg/kg P.O., before AII 0.05 mcg/kg IV, 30 min post dose, 2 mg/kg",230 mmhg
same,Control Before AII,"2 mg/kg P.O., before AII 0.05 mcg/kg IV, 60 min post dose",240 mmhg
same,Control Before AII,"2 mg/kg P.O., before AII 0.05 mcg/kg IV, 60 min post dose, 2 mg/kg",235 mmhg
same,Control Before AII,"2 mg/kg P.O., before AII 0.05 mcg/kg IV, 90 min post dose, 2 mg/kg",225 mmhg and 230 mmhg
same,Control Before AII,"2 mg/kg P.O., before AII 0.05 mcg/kg IV, 120 min post dose, 2 mg/kg",225 mmhg and 235 mmhg
same,Control Before AII,"2 mg/kg P.O., before AII 0.05 mcg/kg IV, 180 min post dose",240 mmhg
same,Control Before AII,"2 mg/kg P.O., before AII 0.05 mcg/kg IV, 180 min post dose, 2 mg/kg",235 mmhg
same,Control Before AII,"2 mg/kg P.O., before AII 0.1 mcg/kg IV, 30 min post dose, 2 mg/kg",235 mmhg and 245 mmhg
same,Control Before AII,"2 mg/kg P.O., before AII 0.1 mcg/kg IV, 60 min post dose",240 mmhg
same,Control Before AII,"2 mg/kg P.O., before AII 0.1 mcg/kg IV, 60 min post dose, 2 mg/kg",225 mmhg
same,Control Before AII,"2 mg/kg P.O., before AII 0.1 mcg/kg IV, 90 min post dose, 2 mg/kg",225 mmhg and 230 mmhg
same,Control Before AII,"2 mg/kg P.O., before AII 0.1 mcg/kg IV, 120 min post dose",240 mmhg
same,Control Before AII,"2 mg/kg P.O., before AII 0.1 mcg/kg IV, 120 min post dose, 2 mg/kg",224 mmhg
same,Control Before AII,"2 mg/kg P.O., before AII 0.1 mcg/kg IV, 180 min post dose, 2 mg/kg",230 mmhg and 235 mmhg

# Reference: patent US5292734A, “Angiotensin II receptor blocking 2,3,6 substituted quinazolinones” (American Cyanamid Company, priority 1993, dated 1994)
